Laboratory results: patent US8614324B2, “Filamin A binding anti-inflammatory and analgesic” (priority 2008, dated 2013)

Target: T1, mu opiate receptor (MOR) (Rattus norvegicus, UniProt P33535)
T1 construct: from tissue; host or cells: striatal membrane preparation (rat striatum)
Assay: MOR agonist activity, [35S]GTPγS binding assay using striatal membranes
Format: biochemical
Design: MOR agonist activity, [35S]GTPγS binding to Gαo: reference not given here
Protocol: To assess the mu opiate receptor (MOR) agonist activity of positive compounds from the FLNA screening, compounds were tested in a [^35S]GTPγS binding assay using striatal membranes.
Striatal tissue was homogenized in 10 volumes of ice cold 25 mM HEPES buffer, pH 7.4, which contained 1 mM EGTA, 100 mM sucrose, 50 μg/ml leupeptin, 0.04 mM PMSF, 2 μg/ml soybean trypsin inhibitor and 0.2% 2-mercaptoethanol. The homogenates were centrifuged at 800×g for 5 minutes and the supernatants were centrifuged at 49,000×g for 20 minutes. The resulting pellets were suspended in 10 volume of reaction buffer, which contained 25 mM HEPES, pH 7.5, 100 mM NaCl, 50 μg/ml leupeptin, 2 μg/ml soybean trypsin inhibitor, 0.04 mM PMSF and 0.02% […].
The resultant striatal membrane preparation (200 μg) was admixed and maintained (incubated) at 30° C. for 5 minutes in reaction buffer as above that additionally contained 1 mM MgCl2 and 0.5 nM [^35S]GTPγS (0.1 μCi/assay, PerkinElmer Life and Analytical Sciences) in a total volume of 250 μl and continued for 5 minutes in the absence or presence of 0.1-10 μM of an assayed compound of interest. The reaction was terminated by dilution with 750 μl of ice-cold reaction buffer that contained 20 mM MgCl2 and 1 mM EGTA and immediate centrifugation at 16,000×g for 5 minutes.
The resulting pellet was solubilized by sonicating for 10 seconds in 0.5 ml of immunoprecipitation buffer containing 0.5% digitonin, 0.2% sodium cholate and 0.5% NP-40. Normal rabbit serum (1 μl) was added to 1 ml of lysate and incubated at 25° C. for 30 minutes. Nonspecific immune complexes were removed by incubation with 25 μl of protein A/G-conjugated agarose beads at 25° C. for 30 minutes followed by centrifugation at 5,000×g at 4° C. for 5 minutes. The supernatant was divided and separately incubated at 25° C. for 30 minutes with antibodies raised against Gαo proteins (1:1,000 dilutions).
The immunocomplexes so formed were collected by incubation at 25° C. for 30 minutes with 40 μl of agarose-conjugated protein A/G beads and centrifugation at 5,000×g at 4° C. for 5 minutes. The pellet was washed and suspended in buffer containing 50 mM Tris-HCl, pH 8.0, and 1% NP-40. The radioactivity in the suspension was determined by liquid scintillation spectrometry. […] DAMGO (H-Tyr-D-Ala-Gly-N-MePhe-Gly-OH; 1 or 10 μM) was used as a positive control.

[1] = 0.1 μM compound, striatal membranes
[2] = 1 μM compound + BFNA (1 μM β-funaltrexamine)
[3] = 1 μM compound, striatal membranes

T1 sequence (P33535 whole entry): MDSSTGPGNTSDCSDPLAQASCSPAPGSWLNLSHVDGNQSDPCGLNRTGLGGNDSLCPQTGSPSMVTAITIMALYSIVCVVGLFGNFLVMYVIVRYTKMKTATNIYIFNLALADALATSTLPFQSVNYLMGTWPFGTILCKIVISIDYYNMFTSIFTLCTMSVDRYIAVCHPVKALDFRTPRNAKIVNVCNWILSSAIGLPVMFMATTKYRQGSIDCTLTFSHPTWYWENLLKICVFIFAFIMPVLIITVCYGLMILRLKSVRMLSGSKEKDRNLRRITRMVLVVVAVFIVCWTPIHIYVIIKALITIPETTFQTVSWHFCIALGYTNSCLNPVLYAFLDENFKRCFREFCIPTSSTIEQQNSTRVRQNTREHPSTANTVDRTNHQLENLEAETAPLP

| Structure (SMILES) | MOR agonist activity, [35S]GTPγS binding to Gαo [1] | MOR agonist activity, [35S]GTPγS binding to Gαo [2] | MOR agonist activity, [35S]GTPγS binding to Gαo [3] |
| --- | --- | --- | --- |
| CCN1CCC2(CC1)OCCN2S(=O)(=O)c1ccc(C(C)=O)cc1 [Compound C0094M] | 172.5% | 115.3% | 263.5% |
| CC(=O)c1ccc(S(=O)(=O)N2CCOC23CCN(CC2CC2)CC3)cc1 [Compound C0095M] | 189.1% | 107.7% | 224.6% |
| C=CCN1CCC2(CC1)OCCN2S(=O)(=O)c1ccc(C(C)=O)cc1 [Compound C0096M] | 186.4% | 127.1% | 328.9% |
| CCOC(=O)CN1CCC2(CC1)OCCN2S(=O)(=O)c1ccc(C(C)=O)cc1 [Compound C0099M] | 157.2% | 114.7% | 195.7% |
| CC(=O)c1ccc(S(=O)(=O)N2CCOC23CCN(CC(=O)O)CC3)cc1 [Compound C0100M] | 173.6% | 195.6% | 245.9% |
| CCCCN1CCC2(CC1)OCCN2S(=O)(=O)c1ccc(C(C)=O)cc1 [Compound C0101M] | 138.2% | 174.8% | 274.3% |
| CCCCN1CCC2(CC1)OCCN2S(=O)(=O)c1ccc(OC)cc1 [Compound C0102M] | 131.8% | 150.4% | 272.0% |
| CN1CCC2(CC1)NC(=O)CN2Cc1ccccc1 [Compound C0104M] | 188.2% | 143.8% | 238.9% |
| CN1CCC2(CC1)NCC(=O)N2Cc1ccccc1 [Compound C0105M] | 198.1% | 73.1% | 220.3% |
| CN1CCC2(CC1)OCCN2S(=O)(=O)c1ccc(S(C)(=O)=O)cc1 [Compound C0106M] | 171.8% | 117.2% | 240.7% |
| CC(=O)c1ccc(S(=O)(=O)N2CC(CN(C)C)OC23CCN(C)CC3)cc1 (stereo not drawn) [Compound C0108M] | 205.6% | 76.9% | 258.5% |
| O=C1CNC2(CCNCC2)N1Cc1ccccc1 [Compound C0114M] | 114.0% | 35.9% | 144.3% |
| O=C1CN(Cc2ccccc2)C2(CCNCC2)N1 [Compound C0115M] | 177.2% | 118.4% | 226.8% |
| CS(=O)(=O)c1ccc(S(=O)(=O)N2CCOC23CCNCC3)cc1 [Compound C0116M] | 258.4% | 152.0% | 302.8% |
| CC(=O)c1ccc(S(=O)(=O)N2CC(CN(C)C)OC23CCNCC3)cc1 (stereo not drawn) [Compound C0118M] | 166.2% | 79.2% | 261.5% |
| CC(=O)c1ccc(S(=O)(=O)N2C(Cc3c[nH]cn3)C(=O)NC23CCNCC3)cc1 (stereo not drawn) [Compound C0119M] | 105.7% | 35.1% | 167.8% |
| O=C1CN(Cc2ccccc2)C2(CCN(CC3CC3)CC2)N1 [Compound C0125M] | 168.6% | 159.7% | 195.2% |
| CS(=O)(=O)c1ccc(S(=O)(=O)N2CCOC23CCN(CC2CC2)CC3)cc1 [Compound C0126M] | 181.8% | 108.5% | 265.3% |
